System: DMS-114 complex spheroids with HUVEC/MSC, growth % test/control
Assay: Anticancer human tumor DMS-114 cell line growth inhibition [AhR];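 also: spheroids exposed to agents for 7 days before readout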;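 as to viability, T/C: 100% = DMSO vehicle control wells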
Settings: for IC50: curve of first compound; for viability, T/C: stronger effect = lower value
How it was run: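 Agents were dosed in half-log steps down from roughly clinical Cmax, or from 10 microM where Cmax was unknown, alone and with AhR antagonists. Read-out: percent test/control growth of tumor spheroids containing HUVEC and MSC stromal cells.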

[1] = second compound 0.1 µM, first compound 0.0316 µM
[2] = second compound 0.1 µM, first compound 0.1 µM
[3] = second compound 0.1 µM, first compound 0.316 µM
[4] = second compound 0.1 µM, first compound 1 µM
[5] = second compound 0.1 µM, first compound 3.16 µM
[6] = second compound 0.1 µM, first compound 10 µM
[7] = second compound 0.316 µM, first compound 0.0316 µM
[8] = second compound 0.316 µM, first compound 0.1 µM
[9] = second compound 0.316 µM, first compound 0.316 µM
[10] = second compound 0.316 µM, first compound 1 µM
[11] = second compound 0.316 µM, first compound 3.16 µM
[12] = second compound 0.316 µM, first compound 10 µM
[13] = second compound 1 µM, first compound 0.0316 µM
[14] = second compound 1 µM, first compound 0.1 µM
[15] = second compound 1 µM, first compound 0.316 µM
[16] = second compound 1 µM, first compound 1 µM
[17] = second compound 1 µM, first compound 3.16 µM
[18] = second compound 1 µM, first compound 10 µM
[19] = second compound 3.16 µM, first compound 0.0316 µM
[20] = second compound 3.16 µM, first compound 0.1 µM
[21] = second compound 3.16 µM, first compound 0.316 µM
[22] = second compound 3.16 µM, first compound 1 µM
[23] = second compound 3.16 µM, first compound 3.16 µM
[24] = second compound 3.16 µM, first compound 10 µM
[25] = second compound 10 µM, first compound 0.0316 µM
[26] = second compound 10 µM, first compound 0.1 µM
[27] = second compound 10 µM, first compound 0.316 µM
[28] = second compound 10 µM, first compound 1 µM
[29] = second compound 10 µM, first compound 3.16 µM
[30] = second compound 10 µM, first compound 10 µM

**Q.** With `CC1(C)CCC(CN2CCN(c3ccc(C(=O)NS(=O)(=O)c4ccc(NCC5CCOCC5)c([N+](=O)[O-])c4)c(Oc4cnc5[nH]ccc5c4)c3)CC2)=C(c2ccc(Cl)cc2)C1` + CC(CO)NC(=O)c1cc(-c2ccc(Cl)cc2)nn(-c2cnn(C)c2)c1=O as the molecule, how does the IC50 (second compound 0.1 µM) read?
**A.** Its IC50 is greater than 10 µM.

**Q.** And the IC50 (second compound 0.316 µM)?
**A.** The IC50 was greater than 10 µM.

**Q.** And the IC50 (second compound 1 µM)?
**A.** The IC50 was greater than 10 µM.

**Q.** And the IC50 (second compound 3.16 µM)?
**A.** Its IC50 is greater than 10 µM.

**Q.** And the IC50 (second compound 10 µM)?
**A.** Its IC50 is greater than 10 µM.

**Q.** What about the viability, T/C [1] of the same molecule?
**A.** The viability, T/C was 99.3%.

**Q.** And the viability, T/C [2]?
**A.** The viability, T/C was 101%.

**Q.** What about the viability, T/C [3] of the same molecule?
**A.** The viability, T/C was 107%.

**Q.** What about the viability, T/C [4] of the same molecule?
**A.** The viability, T/C was 93.1%.

**Q.** What about the viability, T/C [5] of the same molecule?
**A.** The viability, T/C was 104%.

**Q.** And the viability, T/C [6]?
**A.** The viability, T/C was 67.2%.

**Q.** And the viability, T/C [7]?
**A.** Its viability, T/C is 95.7%.

**Q.** What about the viability, T/C [8] of the same molecule?
**A.** Its viability, T/C is 114%.

**Q.** And the viability, T/C [9]?
**A.** Its viability, T/C is 104%.

**Q.** And the viability, T/C [10]?
**A.** Its viability, T/C is 87.6%.

**Q.** And the viability, T/C [11]?
**A.** Its viability, T/C is 92.3%.

**Q.** And the viability, T/C [12]?
**A.** The viability, T/C was 73.4%.

**Q.** And the viability, T/C [13]?
**A.** The viability, T/C was 93.1%.

**Q.** What about the viability, T/C [14] of the same molecule?
**A.** Its viability, T/C is 92.2%.

**Q.** What about the viability, T/C [15] of the same molecule?
**A.** Its viability, T/C is 94%.

**Q.** What about the viability, T/C [16] of the same molecule?
**A.** The viability, T/C was 119%.

**Q.** What about the viability, T/C [17] of the same molecule?
**A.** The viability, T/C was 102%.

**Q.** What about the viability, T/C [18] of the same molecule?
**A.** The viability, T/C was 68.2%.

**Q.** And the viability, T/C [19]?
**A.** The viability, T/C was 101%.

**Q.** And the viability, T/C [20]?
**A.** Its viability, T/C is 101%.

**Q.** What about the viability, T/C [21] of the same molecule?
**A.** Its viability, T/C is 91.3%.

**Q.** What about the viability, T/C [22] of the same molecule?
**A.** Its viability, T/C is 95.8%.

**Q.** And the viability, T/C [23]?
**A.** The viability, T/C was 93%.

**Q.** And the viability, T/C [24]?
**A.** Its viability, T/C is 71.3%.

**Q.** What about the viability, T/C [25] of the same molecule?
**A.** Its viability, T/C is 104%.

**Q.** And the viability, T/C [26]?
**A.** Its viability, T/C is 93%.

**Q.** What about the viability, T/C [27] of the same molecule?
**A.** The viability, T/C was 95.6%.

**Q.** And the viability, T/C [28]?
**A.** Its viability, T/C is 106%.

**Q.** And the viability, T/C [29]?
**A.** Its viability, T/C is 104%.

**Q.** What about the viability, T/C [30] of the same molecule?
**A.** Its viability, T/C is 64.7%.

**Q.** How did the IC50 (second compound 0.1 µM) turn out when `CC1COCCN1c1cc(C2(S(C)(=N)=O)CC2)nc(-c2ccnc3[nH]ccc23)n1` (stereo not given) + CC(CO)NC(=O)c1cc(-c2ccc(Cl)cc2)nn(-c2cnn(C)c2)c1=O was run?
**A.** The IC50 was 4.22 µM.

**Q.** What about the IC50 (second compound 0.316 µM) of the same molecule?
**A.** The IC50 was 4.93 µM.

**Q.** What about the IC50 (second compound 1 µM) of the same molecule?
**A.** Its IC50 is 4.93 µM.

**Q.** And the IC50 (second compound 3.16 µM)?
**A.** Its IC50 is 2.12 µM.

**Q.** And the IC50 (second compound 10 µM)?
**A.** The IC50 was 1.78 µM.

**Q.** And the viability, T/C [1]?
**A.** Its viability, T/C is 109%.

**Q.** And the viability, T/C [2]?
**A.** The viability, T/C was 84.7%.

**Q.** What about the viability, T/C [3] of the same molecule?
**A.** The viability, T/C was 96.7%.

**Q.** And the viability, T/C [4]?
**A.** The viability, T/C was 84.6%.

**Q.** And the viability, T/C [5]?
**A.** Its viability, T/C is 54.3%.

**Q.** What about the viability, T/C [6] of the same molecule?
**A.** The viability, T/C was 36.1%.

**Q.** And the viability, T/C [7]?
**A.** Its viability, T/C is 94.9%.

**Q.** And the viability, T/C [8]?
**A.** Its viability, T/C is 101%.

**Q.** What about the viability, T/C [9] of the same molecule?
**A.** Its viability, T/C is 93.4%.

**Q.** And the viability, T/C [10]?
**A.** Its viability, T/C is 89.5%.

**Q.** What about the viability, T/C [11] of the same molecule?
**A.** The viability, T/C was 62.2%.

**Q.** And the viability, T/C [12]?
**A.** The viability, T/C was 30.5%.

**Q.** What about the viability, T/C [13] of the same molecule?
**A.** The viability, T/C was 112%.

**Q.** What about the viability, T/C [14] of the same molecule?
**A.** The viability, T/C was 86.6%.

**Q.** What about the viability, T/C [15] of the same molecule?
**A.** Its viability, T/C is 85.8%.

**Q.** And the viability, T/C [16]?
**A.** Its viability, T/C is 91.2%.

**Q.** What about the viability, T/C [17] of the same molecule?
**A.** Its viability, T/C is 55.6%.

**Q.** What about the viability, T/C [18] of the same molecule?
**A.** Its viability, T/C is 33.4%.

**Q.** And the viability, T/C [19]?
**A.** The viability, T/C was 105%.

**Q.** What about the viability, T/C [20] of the same molecule?
**A.** The viability, T/C was 106%.

**Q.** What about the viability, T/C [21] of the same molecule?
**A.** Its viability, T/C is 93.6%.

**Q.** And the viability, T/C [22]?
**A.** The viability, T/C was 65.4%.

**Q.** And the viability, T/C [23]?
**A.** The viability, T/C was 43%.

**Q.** And the viability, T/C [24]?
**A.** The viability, T/C was 27.1%.

**Q.** What about the viability, T/C [25] of the same molecule?
**A.** Its viability, T/C is 103%.

**Q.** And the viability, T/C [26]?
**A.** The viability, T/C was 96.1%.

**Q.** And the viability, T/C [27]?
**A.** Its viability, T/C is 98.9%.

**Q.** And the viability, T/C [28]?
**A.** The viability, T/C was 61.1%.

**Q.** And the viability, T/C [29]?
**A.** The viability, T/C was 41.3%.

**Q.** What about the viability, T/C [30] of the same molecule?
**A.** The viability, T/C was 27.7%.
